# Patent US20040019430A1, “Methods and systems for analyzing complex biological systems” (priority 2001, published 2004)
# “Also recorded” adds a separate entry of the source.
# Experiments:
# [1] = tested on: Arabidopsis thaliana plants; assay: SOA1 phenotypic analysis of herbicide-treated Arabidopsis plants (MIC, Tmic, leaf traits); assay type: in vivo; conditions: for Dev. leafCurling / Dev. leafTwisting / Dev. matureLeafAnthocyanins / Dev. matureLeafChlorosis / Dev. matureLeafNecrosis / Dev. newLeafAnthocyanins / Dev. newLeafChlorosis / Dev. newLeafNecrosis / Dev. pointedLeaves: numeric value standardized to mock treated; for Dev. leafWidth: numeric value standardized to the average response for the mock treated tissues; for Characteristic symptoms (phenotype): herbicide treated Arabidopsis; for Symptom Class: three-week-old Arabidopsis plants treated with herbicide, phenotype classes of FIG. 12
# Arabidopsis thaliana [2] = assay: MOA1 biochemical (metabolite) profiling by LC-MS and GC-MS; conditions: for Stress-related (commonly regulated) metabolites: MOA1, 20 min and 1 hr after spraying
# Arabidopsis thaliana [3] = assay: MOA1 phenotypic profiling of Arabidopsis sprayed with unknown and commercial herbicides; assay type: in vivo
# [4] = tested on: N-starved Arabidopsis plants; conditions: nitrate addition to N-starved Arabidopsis; cited from earlier work
Compound,Dev. tMic [1],Dev. leafCurling [1],Dev. leafTwisting [1],Dev. matureLeafAnthocyanins [1],Dev. matureLeafChlorosis [1],Dev. matureLeafNecrosis [1],Dev. newLeafAnthocyanins [1],Dev. newLeafChlorosis [1],Dev. newLeafNecrosis [1],Dev. pointedLeaves [1],Dev. leafWidth [1],Characteristic symptoms (phenotype) [1],further results
O=C(O)Cn1c(=O)sc2cccc(Cl)c21 [Benazolin],2,2,2,0,0,0,0,0,0,0,−2,–,–
COC(=O)c1cc(Oc2ccc(Cl)cc2Cl)ccc1[N+](=O)[O-] [Bifenox],1,1,0,0,0,1,0,0,3,0,0,Necrotic leaf flecks,–
c1cc[n+]2c(c1)-c1cccc[n+]1CC2 [Diquat],2,2,0,0,1,4,0,1,4,1,−2,rapid and widespread leaf necrosis,Symptom Class [1]: 7
CCc1cnc(C2=NC(C)(C(C)C)C(=O)N2)c(C(=O)O)c1 (stereo not drawn) [Imazethapyr],2,1,1,3,0,0,0,2,0,0,0,anthocyanin accumulation in the older leaves accompanied by chlorosis of the newly emerging leaves,–
COc1c(Cl)ccc(Cl)c1C(=O)O [Dicamba],2,2,2,0,2,0,0,0,0,0,−2,–,–
CC(C)C1(C)N=C(c2ncccc2C(=O)O)NC1=O (stereo not drawn) [Imazapyr],2,0,0,2,0,0,0,2,0,0,0,anthocyanin accumulation in the older leaves accompanied by chlorosis of the newly emerging leaves,"Stress-related (commonly regulated) metabolites (Arabidopsis thaliana [2]): Only a few, if any, stress-related metabolites were observed"
CC(C)OC(=O)Nc1cccc(Cl)c1 [Chloropropham],–,–,–,–,–,–,–,–,–,–,–,–,Stress-related (commonly regulated) metabolites (Arabidopsis thaliana [2]): neither butylate nor chlorpropham treatment resulted in many changes; Herbicidal phenotype (Arabidopsis thaliana [3]): neither showed a strong herbicidal phenotype
"O=[N+]([O-])O [Nitrate, nitrate]",–,–,–,–,–,–,–,–,–,–,–,–,Nitrate Regulation of Glutamate synthetase [4]: ↑; Nitrate Regulation of Glutamine synthetase (2) [4]: ↑; Nitrate Regulation of MADs Box (2) [4]: ↓; Nitrate Regulation of MYB transcription factor [4]: ↑; Nitrate Regulation of Malate Dehydrogenase [4]: ↑; Nitrate Regulation of Nitrate transporter [4]: ↑; Nitrate Regulation of Phosphate transporter [4]: ↑; Nitrate Regulation of Transaldolase [4]: ↑; Nitrate Regulation of Transketolase [4]: ↑
CC(C)N1C(=O)c2ccccc2NS1(=O)=O [Bentazon],1,2,0,0,2,4,0,2,4,1,−2,rapid and widespread leaf necrosis,–
"CNc1cnn(-c2cccc(C(F)(F)F)c2)c(=O)c1Cl [Norfluazon, norflurazon]",–,–,–,–,–,–,–,–,–,–,–,–,"Stress-related (commonly regulated) metabolites (Arabidopsis thaliana [2]): Only a few, if any, stress-related metabolites were observed"
CCNc1nc(Cl)nc(NC(C)C)n1 [Atrazine],1,1,0,0,1,4,0,1,4,1,−1,rapid and widespread leaf necrosis,–
CCSC(=O)N(CC(C)C)CC(C)C [Butylate],–,–,–,–,–,–,–,–,–,–,–,–,Stress-related (commonly regulated) metabolites (Arabidopsis thaliana [2]): neither butylate nor chlorpropham treatment resulted in many changes; Herbicidal phenotype (Arabidopsis thaliana [3]): neither showed a strong herbicidal phenotype
O=C(O)c1cc(Oc2ccc(C(F)(F)F)cc2Cl)ccc1[N+](=O)[O-] [Acifluorfen],1,1,0,0,0,1,0,0,3,0,0,Necrotic leaf flecks,–
C[n+]1ccc(-c2cc[n+](C)cc2)cc1 [Paraquat],2,2,0,0,1,4,0,1,4,1,−1,rapid and widespread leaf necrosis,Symptom Class [1]: 7
CSc1nnc(C(C)(C)C)c(=O)n1N [Metribuzin],1,1,0,0,2,4,0,2,4,1,−2,rapid and widespread leaf necrosis,–
CN(C)C(=O)Nc1ccc(Cl)c(Cl)c1 [Diuron],1,1,0,0,2,4,0,2,4,1,−2,rapid and widespread leaf necrosis,Symptom Class [1]: 7
Nc1nc[nH]n1 [Amitrole],2,−1,0,0,3,0,0,4,0,0,2,leaf bleaching and leaf enlargement,Hierarchical cluster analysis of the eleven phenotypic characteristics / phenotype (Arabidopsis thaliana [3]; Ward's method): exhibited chlorosis and not true bleaching
CS(=O)(=O)c1cc(C(F)(F)F)ccc1C(=O)c1cnoc1C1CC1 [Isoxaflutole],–,–,–,–,–,–,–,–,–,–,–,–,"Alpha-tocopherol levels (Arabidopsis thaliana [2]; relative to control, early time points): not significantly changed relative to the control; Tyrosine and phenylalanine levels (Arabidopsis thaliana [2]; relative to control, early time points, 1 hr): up-regulated relative to the control; also recorded: began to accumulate relative to the control after one hour"
COc1nc(C)nc(NC(=O)NS(=O)(=O)c2ccccc2Cl)n1 [Chlorsulfuron],2,1,1,3,2,0,0,2,0,0,−1,anthocyanin accumulation in the older leaves accompanied by chlorosis of the newly emerging leaves,–
"O=C(O)COc1ccc(Cl)cc1Cl [2,4-D]",2,1,2,1,2,0,0,1,0,0,−1,–,Symptom Class [1]: 5
CCc1cccc(C)c1N(C(=O)CCl)C(C)COC (stereo not drawn) [Metolachlor],2,2,1,0,0,3,0,0,3,1,−1,–,–
